Assay results from paper PMC10728895, “Stapled Phd Peptides Inhibit Doc Toxin Induced Growth Arrest in Salmonella” (ACS Chemical Biology, 2023).
Positions of bridges follow the written chain, without caps; N, C: chain ends. Non-standard residues stand in square brackets, D forms with d. Residues, ends and D or L forms follow the SMILES beside them. *: point of attachment. 5FAM = O=C1OC2(c3ccc(O)cc3Oc3cc(O)ccc32)c2ccc(C(=O)*)cc21; S5 = C=CCCC[C@](C)(N)C(=O)O; Nle = CCCC[C@H](N)C(=O)O

What was measured:
[1] = tested on: S. typhimurium (14028s) glmS::mCherry strain; assay: Peptide uptake in S. typhimurium by flow cytometry; type: cell-based; conditions: RT; for Uptake into S. typhimurium (% fluorescent cells) / Uptake into S. typhimurium (penetration efficiency): 10 μM FAM-labeled peptide; for Uptake into S. typhimurium (% fluorescent cells): 22 h; for Uptake into S. typhimurium (penetration efficiency): 4 or 22 h, M9 minimal medium
Description: S. typhimurium (14028s) glmS::mCherry strain was grown overnight in LB medium containing 1% glucose. The culture was then diluted to an OD600 of approximately 0.1 into 200 μL of fresh M9 minimal medium supplemented with 0.5% arabinose containing 2 or 10 μM of the indicated 5(6)-carboxyfluorescein-labeled Phd^52–73 peptide. The samples were incubated on the bench at RT for 4 or 22 h with no access to light. Bacteria were then spun down, washed with 1 mL of PBS solution, and finally resuspended in 1 mL of PBS solution for flow cytometry analysis (BD LSR II). Constitutively expressed mCherry was used to discriminate bacteria from the debris in each sample.

E. coli MG1655 = assay: Peptide uptake in E. coli by flow cytometry; type: cell-based; conditions: 5 μM FAM-labeled peptide in PBS, 2 h, 37 °C, E. coli MG1655, trypan blue quench, mean ± SD
Description: E. coli MG1655 strain was grown in LB medium to an OD600 of around 0.5. Approximately 10^7 cells were washed once with PBS and subsequently incubated with 5 μM of the indicated 5(6)-carboxyfluorescein-labeled Phd^52–73 peptide in PBS (500 μL) for 2 h at 37 °C. Bacteria were washed twice with PBS, and trypan blue (1 mg mL^–1) in PBS was added and incubated for 10 min at RT. Bacteria were washed an additional time with PBS and resuspended in 2 mL of PBS. Flow cytometry analysis was performed using a ThermoFisher Attune NxT and a blue laser (BL1) for fluorescein excitation.

DocSTm toxin = conditions: DocSTm 5 μM, peptide 50 μM, pH 8.0; average ± SD, replicates 3-48 (Table S3)
In short: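 Thermal shift with 5 μM recombinant Doc toxin and 50 μM Phd peptides in 20 mM K2HPO4, 50 mM (NH4)2SO4, pH 8.0, SYPRO Orange 3×, ramped 25–95 °C. Tm from Boltzmann fit; ΔTm is peptide-bound minus free DocSTm Tm, triplicates.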

[2] = tested on: DocSTm (phosphorylation of EF-TuSTm); assay: Dot blot EF-Tu phosphorylation assay; type: biochemical, Salmonella Typhimurium; conditions: DocSTm 1 μM, EF-TuSTm 3 μM, peptide 10 μM to 5 nM (3-fold dilutions), 16 h RT, dot blot anti-phosphothreonine; compared at three times the DocSTm concentration; two independent experiments
Description: Samples were prepared in assay buffer [50 mM HEPES (pH 7.5), 25 mM (NH4)2SO4, 2 mM TCEP, 2 mM MgCl2, and 1 mM ATP] with a final concentration of recombinant Doc at 1 μM, recombinant EF-Tu at 3 μM, and varying concentrations of synthetic Phd peptides (final concentrations: 10 μM to 5 nM). EF-Tu (3 μM) in assay buffer was used as a negative control (no Doc and Phd peptide), while EF-Tu (3 μM) with Doc (1 μM) in assay buffer was used as a positive control (no Doc inhibitor). The final sample volume was 10 μL. Samples were incubated for 16 h at RT and subsequently spotted on a nitrocellulose membrane. Phosphorylated EF-Tu was detected by immunodecoration using a rabbit monoclonal antiphosphothreonine antibody (Abcam, ab218195) at 1:2000 dilution (1 h at 4 °C), followed by incubation with a goat antirabbit IgG (H + L) HRP conjugate antibody (Advansta) at 1:10,000 dilution (1 h at RT). Chemiluminescence was developed using the HRP Luminata Kit (Merck, WBLUR0100) and captured with an ImageQuant LAS4000 Western blot imaging system (GE HealthCare). Each peptide was tested in two independent experiments.

| SMILES | Uptake into S. typhimurium (% fluorescent cells) [1] | Cellular uptake into E. coli (penetration efficiency) (E. coli MG1655) | Uptake into S. typhimurium (penetration efficiency) [1] | also measured |
| --- | --- | --- | --- | --- |
| CCCC[C@H](NC(=O)[C@H](Cc1c[nH]c2ccccc12)NC(=O)c1ccc2c(c1)C(=O)OC21c2ccc(O)cc2Oc2cc(O)ccc21)C(=O)N[C@@H](CC(=O)O)C(=O)N[C@@H](CC(=O)O)C(=O)N[C@@H](CCC(=O)O)C(=O)N[C@@H](Cc1ccccc1)C(=O)N[C@@H](C)C(=O)N[C@@H](C)C(=O)N[C@H](C(=O)N[C@@H](CCCC)C(=O)N[C@@H](C)C(=O)N[C@H](C(=O)N[C@@H](Cc1c[nH]cn1)C(=O)NCC(=O)N[C@@H](CC(N)=O)C(=O)N[C@@H](CCC(=O)O)C(=O)N[C@@H](CC(C)C)C(=O)N[C@@H](CCCNC(=N)N)C(=O)N[C@@H](CCC(=O)O)C(=O)N[C@@H](CC(C)C)C(=O)N[C@@H](C)C(=O)N[C@@H](CC(=O)O)C(=O)N[C@@H](CCCCN)C(=O)O)C(C)C)[C@@H](C)CC [FAM-1] (5FAM-W[Nle]DDEFAAI[Nle]AVHGNELRELADK-OH) | less than 1% | extremely low uptake |  | Uptake into S. typhimurium, in words ([1]; 2 and 10 μM FAM-labeled peptide, 4 and 22 h): very low uptake |
| CCCC[C@H](NC(=O)[C@H](Cc1c[nH]c2ccccc12)NC(=O)c1ccc2c(c1)C(=O)OC21c2ccc(O)cc2Oc2cc(O)ccc21)C(=O)N[C@@H](CC(N)=O)C(=O)N[C@@H](CC(N)=O)C(=O)N[C@@H](CCC(=O)O)C(=O)N[C@@H](Cc1ccccc1)C(=O)N[C@@]1(C)CCCC=CCCC[C@@](C)(C(=O)N[C@H](C(=O)N[C@@H](Cc2c[nH]cn2)C(=O)NCC(=O)N[C@@H](CCCNC(=N)N)C(=O)N[C@@H](CCC(N)=O)C(=O)N[C@@H](CC(C)C)C(=O)N[C@@H](CCCNC(=N)N)C(=O)N[C@@H](CCCNC(=N)N)C(=O)N[C@@H](CC(C)C)C(=O)N[C@@H](C)C(=O)N[C@@H](CCCNC(=N)N)C(=O)N[C@@H](CCCCN)C(=O)O)C(C)C)NC(=O)[C@H](CCCC)NC(=O)[C@H]([C@@H](C)CC)NC(=O)[C@H](C)NC1=O [FAM-36] (5FAM-W[Nle]NNEF[S5]AI[Nle][S5]VHGRQLRRLARK-OH; staple 7-11) | more than 20% |  | 9–30% |  |
| CCCC[C@H](NC(=O)[C@H](Cc1c[nH]c2ccccc12)NC(=O)c1ccc2c(c1)C(=O)OC21c2ccc(O)cc2Oc2cc(O)ccc21)C(=O)N[C@@H](CCCNC(=N)N)C(=O)N[C@@H](CC(=O)O)C(=O)N[C@@H](CCC(=O)O)C(=O)N[C@@H](Cc1ccccc1)C(=O)N[C@@H](CCCNC(=N)N)C(=O)N[C@@H](C)C(=O)N[C@H](C(=O)N[C@@H](CCCC)C(=O)N[C@@H](CCCNC(=N)N)C(=O)N[C@H](C(=O)N[C@@H](Cc1c[nH]cn1)C(=O)NCC(=O)N[C@@H](CC(N)=O)C(=O)N[C@@H](CCC(=O)O)C(=O)N[C@@H](CC(C)C)C(=O)N[C@@H](CCCNC(=N)N)C(=O)N[C@@H](CCC(=O)O)C(=O)N[C@@H](CC(C)C)C(=O)N[C@@H](C)C(=O)N[C@@H](CC(=O)O)C(=O)N[C@@H](CCCCN)C(=O)O)C(C)C)[C@@H](C)CC [FAM-19] (5FAM-W[Nle]RDEFRAI[Nle]RVHGNELRELADK-OH) |  | 7–14% |  |  |
| CCCC[C@H](NC(=O)[C@H](Cc1c[nH]c2ccccc12)NC(=O)c1ccc2c(c1)C(=O)OC21c2ccc(O)cc2Oc2cc(O)ccc21)C(=O)N[C@@H](CCCNC(=N)N)C(=O)N[C@@H](CC(=O)O)C(=O)N[C@@H](CCC(=O)O)C(=O)N[C@@H](Cc1ccccc1)C(=O)N[C@@H](C)C(=O)N[C@@H](C)C(=O)N[C@H](C(=O)N[C@@H](CCCC)C(=O)N[C@@H](CCCNC(=N)N)C(=O)N[C@H](C(=O)N[C@@H](Cc1c[nH]cn1)C(=O)NCC(=O)N[C@@H](CC(N)=O)C(=O)N[C@@H](CCC(=O)O)C(=O)N[C@@H](CC(C)C)C(=O)N[C@@H](CCCNC(=N)N)C(=O)N[C@@H](CCC(=O)O)C(=O)N[C@@H](CC(C)C)C(=O)N[C@@H](C)C(=O)N[C@@H](CC(=O)O)C(=O)N[C@@H](CCCCN)C(=O)O)C(C)C)[C@@H](C)CC [FAM-16] (5FAM-W[Nle]RDEFAAI[Nle]RVHGNELRELADK-OH) |  | 7–14% |  |  |
| CCCC[C@H](NC(=O)[C@H](Cc1c[nH]c2ccccc12)NC(=O)c1ccc2c(c1)C(=O)OC21c2ccc(O)cc2Oc2cc(O)ccc21)C(=O)N[C@@H](CCCNC(=N)N)C(=O)N[C@@H](CC(=O)O)C(=O)N[C@@H](CCC(=O)O)C(=O)N[C@@H](Cc1ccccc1)C(=O)N[C@@H](C)C(=O)N[C@@H](C)C(=O)N[C@H](C(=O)N[C@@H](CCCC)C(=O)N[C@@H](CCCNC(=N)N)C(=O)N[C@H](C(=O)N[C@@H](Cc1c[nH]cn1)C(=O)NCC(=O)N[C@@]1(C)CCCC=CCCC[C@@](C)(C(=O)N[C@@H](CC(C)C)C(=O)N[C@@H](C)C(=O)N[C@@H](CC(=O)O)C(=O)N[C@@H](CCCCN)C(=O)O)NC(=O)[C@H](CCCNC(=N)N)NC(=O)[C@H](CC(C)C)NC(=O)[C@H](CCC(=O)O)NC1=O)C(C)C)[C@@H](C)CC [FAM-18] (5FAM-W[Nle]RDEFAAI[Nle]RVHG[S5]ELR[S5]LADK-OH; staple 15-19) |  | 7–14% | 9–30% |  |
| CCCC[C@H](NC(=O)[C@H](Cc1c[nH]c2ccccc12)NC(C)=O)C(=O)N[C@@H](CCCNC(=N)N)C(=O)N[C@@H](CC(N)=O)C(=O)N[C@@H](CCC(=O)O)C(=O)N[C@@H](Cc1ccccc1)C(=O)N[C@@H](CCCNC(=N)N)C(=O)N[C@@H](C)C(=O)N[C@H](C(=O)N[C@@H](CCCC)C(=O)N[C@@H](CCCNC(=N)N)C(=O)N[C@H](C(=O)N[C@@H](Cc1c[nH]cn1)C(=O)NCC(=O)N[C@@]1(C)CCCC=CCCC[C@@](C)(C(=O)N[C@@H](CC(C)C)C(=O)N[C@@H](C)C(=O)N[C@@H](CC(N)=O)C(=O)N[C@@H](CCCCN)C(=O)O)NC(=O)[C@H](CCCNC(=N)N)NC(=O)[C@H](CC(C)C)NC(=O)[C@H](CCC(N)=O)NC1=O)C(C)C)[C@@H](C)CC [Peptide 29] (Ac-W[Nle]RNEFRAI[Nle]RVHG[S5]QLR[S5]LANK-OH; staple 15-19) |  |  |  | Average Tm of DocSTm in the presence of peptide (DocSTm toxin): 61.6 ± 0.3 °C; Inhibition of EF-TuSTm phosphorylation by DocSTm (concentration needed for full inhibition) [2]: required a higher concentration for full DocSTm inhibition |
